In the assay the target is T1, human farnesol receptor protein hFXR (Homo sapiens, UniProt Q96RI1).
T1 construct: hexahistidine (His6)
T1 sequence (Q96RI1 1-486): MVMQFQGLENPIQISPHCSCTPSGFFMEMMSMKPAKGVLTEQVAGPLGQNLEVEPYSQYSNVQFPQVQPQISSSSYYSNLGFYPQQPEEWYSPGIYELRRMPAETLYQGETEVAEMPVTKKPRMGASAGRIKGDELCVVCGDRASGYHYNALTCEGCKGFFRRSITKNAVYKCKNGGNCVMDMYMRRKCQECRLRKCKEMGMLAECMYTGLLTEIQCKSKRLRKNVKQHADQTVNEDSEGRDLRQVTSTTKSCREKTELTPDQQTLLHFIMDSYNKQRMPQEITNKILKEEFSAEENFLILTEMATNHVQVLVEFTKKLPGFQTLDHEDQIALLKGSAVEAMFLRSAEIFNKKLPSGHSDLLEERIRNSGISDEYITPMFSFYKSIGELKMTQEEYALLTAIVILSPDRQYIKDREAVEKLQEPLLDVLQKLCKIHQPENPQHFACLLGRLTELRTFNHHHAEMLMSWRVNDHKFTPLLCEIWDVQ
The assay can be described thus: AlphaScreen assay of FXR agonist activity in vitro: effect on binding between human farnesol receptor protein and its coactivator (SRC1-2). The format is biochemical. Particulars: hFXR 100 nM, peptide bSRC1-2 50 nM, 2 hr incubation at room temperature. The procedure: FXR agonist activity in vitro for the chemicals prepared in the above examples is measured.
AlphaScreen-based assays are performed with a hexahistidine detection kit manufactured by Perkins-Elmer, for measuring the effect of chemical compounds on the binding between human farnesol receptor protein and its coactivator (SRC1-2), the method is shown as follows:
1) Preparing a mixture comprising human farnesol receptor protein hFXR (100 nM, 15 μL/well), peptide bSRC1-2 (50 nM, 15 μL/well), 10× AlphaScreen buffer solution (15 μL/well and DI water (60 μL/well), and then transferring 105 μL/well of the mixture to a 96-well plate; 2) Diluting the chemicals prepared in the above examples by twice gradient 12×, with 15 μL/well; 3) Adding donor beads and acceptor beads, 30 μL/well in total; (attention: the beads are light-sensitive) 4) Incubating in dark at room temperature for 2 hr; 5) Transferring 40 μL/well of the mixture to a 384-well plate with 3 replicates, and then centrifuging at 1000 rpm for 1 min, to make liquid mixed well underneath the wells. (attention: photopathic operation); 6) In a dark room, reading the plate (by Homogeneous luminescent immunoassay system) to obtain EC50 with a GraphPad Prism5 software.

Turning to `O=C(O)c1cccc(N2CCC3(CC(OCc4c(-c5c(Cl)cccc5Cl)noc4C4CC4)C3)C2)n1` (centres unmarked) [Example 36, 6-(2-((5-cyclopropyl-3-(2,6-dichlorophenyl)isoxazol-4-yl)methoxy)-6-azaspiro[3.4]octan-6-yl)pyridine-2-carboxylic Acid], the concentration for a half-maximal effect (EC50) is 100 to 1000 nM. As for `O=C(O)c1ccc(N2CCC3(CC(OCc4c(-c5c(Cl)cccc5Cl)noc4C4CC4)C3)C2)c(F)c1` (centres unmarked) [Example 37, 4-(2-((5-cyclopropyl-3-(2,6-dichlorophenyl)isoxazol-4-yl)methoxy)-6-azaspiro[3.4]octan-6-yl)-3-fluorobenzoic Acid], the figure is 100 to 1000 nM; as for `O=C(O)c1ccc2nc(N3CCC4(CC(OCc5c(-c6c(F)cccc6F)noc5C5CC5)C4)C3)sc2c1` (centres unmarked) [Example 38], 100 to 1000 nM. As for `O=C(O)c1ccc2nc(N3CCC4(CC(OCc5c(-c6c(F)cccc6F)noc5C5CC5)C4)C3)oc2c1` (centres unmarked) [Example 39, 2-(2-((5-cyclopropyl-3-(2,6-difluorophenyl)isoxazol-4-yl)methoxy)-6-azaspiro[3.4]octan-6-yl) benzo[d]oxazole-6-carboxylic Acid], the figure is 100 to 1000 nM; as for `O=C(O)c1ccc2nc(N3CCc4cc(OCc5c(-c6c(F)cccc6F)noc5C5CC5)ccc4C3)sc2c1` [Example 40, 2-(6-((5-cyclopropyl-3-(2,6-difluorophenyl)isoxazol-4-yl)methoxy)-3,4-dihydroisoquinolin-2(1H)-yl) benzo[d]thiazole-6-carboxylic Acid], less than 100 nM; as for `O=C(O)c1ccc2nc(N3CCC4(CC(OCc5c(-c6ccccc6C(F)(F)F)noc5C5CC5)C4)C3)sc2c1` (centres unmarked) [Example 41, 2-(2-((5-cyclopropyl-3-(2-trifluoromethylphenyl)isoxazol-4-yl)methoxy)-6-azaspiro[3.4]octan-6-yl) benzo[d]thiazole-6-carboxylic Acid], 100 to 1000 nM. As to `O=C(O)c1ccc2nc(N3CCC4(CC(OCc5c(-c6ccccc6C(F)(F)F)noc5C5CC5)C4)C3)oc2c1` (centres unmarked) [Example 42, 2-(2-((5-cyclopropyl-3-(2-trifluoromethylphenyl)isoxazol-4-yl)methoxy)-6-azaspiro[3.4]octan-6-yl) benzo[d]oxazole-6-carboxylic Acid], the EC50 is 100 to 1000 nM. As for `O=C(O)c1ccc2nc(N3CCc4cc(OCc5c(-c6ccccc6C(F)(F)F)noc5C5CC5)ccc4C3)sc2c1` [Example 43, 2-(6-((5-cyclopropyl-3-(2-trifluoromethylphenyl)isoxazol-4-yl)methoxy)-3,4-dihydroisoquinolin-2(1H)-yl) benzo[d]thiazole-6-carboxylic Acid], the figure is less than 100 nM; as for `O=C(O)c1ccc(N2CCC3(CC(OCc4c(-c5c(Cl)cccc5Cl)noc4C4CC4)C3)C2)nc1` (centres unmarked) [Example 44, 6-(2-((5-cyclopropyl-3-(2,6-dichlorophenyl)isoxazol-4-yl)methoxy)-6-azaspiro[3.4]octan-6-yl) pyridine-3-carboxylic Acid], less than 100 nM; as for `O=C(O)c1ccc(N2CCC3(CC(OCc4c(-c5c(Cl)cccc5Cl)noc4C4CC4)C3)C2)cn1` (centres unmarked) [Example 45], 100 to 1000 nM. As for `O=C(O)c1ccc(N2CCC3(CC(OCc4c(-c5c(Cl)cccc5Cl)noc4C4CC4)C3)C2)nn1` (centres unmarked) [Example 46, 6-(2-((5-cyclopropyl-3-(2,6-dichlorophenyl)isoxazol-4-yl)methoxy)-6-azaspiro[3.4]octan-6-yl) pyridazine-3-carboxylic Acid], the figure is less than 100 nM. As for `CS(=O)(=O)NC(=O)c1ccc2nc(N3CCC4(CC(OCc5c(-c6c(Cl)cccc6Cl)noc5C5CC5)C4)C3)sc2c1` (centres unmarked) [Example 47, 2-(2-((5-cyclopropyl-3-(2,6-dichlorophenyl)isoxazol-4-yl)methoxy)-6-azaspiro[3.4]octan-6-yl)-N-(methylsulfonyl)benzo[d]thiazole-6-carboxamide], the figure is 100 to 1000 nM. Consider `O=C(O)c1ccc2nc(N3CCC(COCc4c(-c5c(Cl)cccc5Cl)noc4C4CC4)CC3)sc2c1` [Example 48], for which the EC50 lay within 100 to 1000 nM.

With “(S)-2-(2-((5-cyclopropyl-3-(2,6-dichlorophenyl)isoxazol-4-yl)methoxy)-7-(fluromethyl)-6-azaspiro[3.4]octan-6-yl)-4-methoxybenzo[d]thiazole-6-carboxylic Acid [Example 20]”, the EC50 is 100 to 1000 nM.
